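Dose response: 5 concentrations. Exposure: 48 h. Format: 96-well plates. Endpoint: linear interpolation; highest concentration if not reached. TGI denotes the concentration required for complete inhibition of growth.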
Key:
Assay in all cases: NCI anticancer screen, dose series, 48 h
EKVX NSCLC = tested on: EKVX NSCLC
SF-268 CNS = tested on: SF-268 CNS
UO-31 renal = tested on: UO-31 renal
OVCAR-3 ovarian = tested on: OVCAR-3 ovarian
RPMI-8226 leukemia = tested on: RPMI-8226 leukemia
IGROV1 ovarian = tested on: IGROV1 ovarian
LOX IMVI melanoma = tested on: LOX IMVI melanoma
NCI-H23 lung = tested on: NCI-H23 lung
KM12 colon = tested on: KM12 colon
DMS 273 small cell lung = tested on: DMS 273 small cell lung
SF-539 CNS = tested on: SF-539 CNS
786-0 renal = tested on: 786-0 renal
LXFL 529 NSCLC = tested on: LXFL 529 NSCLC
HOP-62 NSCLC = tested on: HOP-62 NSCLC
SNB-75 CNS = tested on: SNB-75 CNS
A549 NSCLC = tested on: A549 NSCLC
OVCAR-5 ovarian = tested on: OVCAR-5 ovarian
OVCAR-4 ovarian = tested on: OVCAR-4 ovarian
SW-620 colon = tested on: SW-620 colon
HOP-18 NSCLC = tested on: HOP-18 NSCLC
OVCAR-8 ovarian = tested on: OVCAR-8 ovarian
SNB-19 CNS = tested on: SNB-19 CNS
SK-OV-3 ovarian = tested on: SK-OV-3 ovarian
KM20L2 colon = tested on: KM20L2 colon
UACC-257 melanoma = tested on: UACC-257 melanoma
NCI-H460 lung = tested on: NCI-H460 lung
ACHN renal = tested on: ACHN renal
HOP-92 NSCLC = tested on: HOP-92 NSCLC
HCC-2998 colon = tested on: HCC-2998 colon
RXF 393 renal = tested on: RXF 393 renal
CCRF-CEM leukemia = tested on: CCRF-CEM leukemia
SK-MEL-5 melanoma = tested on: SK-MEL-5 melanoma
M19-MEL melanoma = tested on: M19-MEL melanoma
K-562 leukemia = tested on: K-562 leukemia
SK-MEL-28 melanoma = tested on: SK-MEL-28 melanoma
CAKI-1 renal = tested on: CAKI-1 renal
SF-295 CNS = tested on: SF-295 CNS
MOLT-4 leukemia = tested on: MOLT-4 leukemia
MALME-3M melanoma = tested on: MALME-3M melanoma
M14 melanoma = tested on: M14 melanoma
SK-MEL-2 melanoma = tested on: SK-MEL-2 melanoma
DMS 114 small cell lung = tested on: DMS 114 small cell lung
COLO 205 colon = tested on: COLO 205 colon
SN12C renal = tested on: SN12C renal
TK-10 renal = tested on: TK-10 renal
HL-60(TB) leukemia = tested on: HL-60(TB) leukemia
U251 CNS = tested on: U251 CNS
HCT-15 colon = tested on: HCT-15 colon
HT29 colon = tested on: HT29 colon
UACC-62 melanoma = tested on: UACC-62 melanoma
NCI-H522 lung = tested on: NCI-H522 lung
A498 renal = tested on: A498 renal
SNB-78 CNS = tested on: SNB-78 CNS
RXF-631 renal = tested on: RXF-631 renal
DLD-1 colon = tested on: DLD-1 colon
SR leukemia = tested on: SR leukemia
XF 498 CNS = tested on: XF 498 CNS

SMILES: OC1c2ccccc2C2(O)C1C(c1ccccc1)C(c1ccccc1)C2(O)c1ccccc1 (stereo not drawn)
- TGI (EKVX NSCLC): 70.8 µM
- TGI (SF-268 CNS): 68.8 µM
- TGI (UO-31 renal): 55.5 µM
- TGI (OVCAR-3 ovarian): 26.9 µM
- TGI (RPMI-8226 leukemia): 65.1 µM
- TGI (IGROV1 ovarian): 82.9 µM
- TGI (LOX IMVI melanoma): 21.1 µM
- TGI (NCI-H23 lung): 41.7 µM
- TGI (KM12 colon): 25.3 µM
- TGI (DMS 273 small cell lung): 23.5 µM
- TGI (SF-539 CNS): 26 µM
- TGI (786-0 renal): 31.1 µM
- TGI (LXFL 529 NSCLC): 54.6 µM
- TGI (HOP-62 NSCLC): 28.2 µM
- TGI (SNB-75 CNS): 46.2 µM
- TGI (A549 NSCLC): 81.2 µM
- TGI (OVCAR-5 ovarian): 26.7 µM
- TGI (OVCAR-4 ovarian): > 100 µM
- TGI (SW-620 colon): 52 µM
- TGI (HOP-18 NSCLC): 34 µM
- TGI (OVCAR-8 ovarian): 43.5 µM
- TGI (SNB-19 CNS): > 100 µM
- TGI (SK-OV-3 ovarian): 64 µM
- TGI (KM20L2 colon): 22.5 µM
- TGI (UACC-257 melanoma): 29.7 µM
- TGI (NCI-H460 lung): 19.5 µM
- TGI (ACHN renal): 29.7 µM
- TGI (HOP-92 NSCLC): 23.9 µM
- TGI (HCC-2998 colon): 28.6 µM
- TGI (RXF 393 renal): 76.2 µM
- TGI (CCRF-CEM leukemia): > 100 µM
- TGI (SK-MEL-5 melanoma): 21.7 µM
- TGI (M19-MEL melanoma): 38 µM
- TGI (K-562 leukemia): 50 µM
- TGI (SK-MEL-28 melanoma): 25.7 µM
- TGI (CAKI-1 renal): > 100 µM
- TGI (SF-295 CNS): 25.5 µM
- TGI (MOLT-4 leukemia): 22.8 µM
- TGI (MALME-3M melanoma): 26.9 µM
- TGI (M14 melanoma): 28.3 µM
- TGI (SK-MEL-2 melanoma): 23.3 µM
- TGI (DMS 114 small cell lung): 41.8 µM
- TGI (COLO 205 colon): 30.7 µM
- TGI (SN12C renal): 32.9 µM
- TGI (TK-10 renal): 85.4 µM
- TGI (HL-60(TB) leukemia): 31.9 µM
- TGI (U251 CNS): 23.1 µM
- TGI (HCT-15 colon): 22.2 µM
- TGI (HT29 colon): 22.8 µM
- TGI (UACC-62 melanoma): 28.4 µM
- TGI (NCI-H522 lung): 31.7 µM

SMILES: COC1=CC(=O)C2C(C1=O)[C@@H]1c3ccccc3C[C@H]21 (stereo partly drawn)
- TGI (EKVX NSCLC): > 100 µM
- TGI (SF-268 CNS): > 100 µM
- TGI (UO-31 renal): > 100 µM
- TGI (OVCAR-3 ovarian): > 100 µM
- TGI (A498 renal): > 100 µM
- TGI (RPMI-8226 leukemia): > 100 µM
- TGI (IGROV1 ovarian): > 100 µM
- TGI (LOX IMVI melanoma): > 100 µM
- TGI (NCI-H23 lung): > 100 µM
- TGI (KM12 colon): > 100 µM
- TGI (DMS 273 small cell lung): > 100 µM
- TGI (SF-539 CNS): > 100 µM
- TGI (786-0 renal): > 100 µM
- TGI (HOP-62 NSCLC): > 100 µM
- TGI (SNB-75 CNS): > 100 µM
- TGI (A549 NSCLC): > 100 µM
- TGI (OVCAR-5 ovarian): > 100 µM
- TGI (OVCAR-4 ovarian): > 100 µM
- TGI (SW-620 colon): > 100 µM
- TGI (SNB-78 CNS): > 100 µM
- TGI (OVCAR-8 ovarian): > 100 µM
- TGI (SNB-19 CNS): > 100 µM
- TGI (SK-OV-3 ovarian): > 100 µM
- TGI (UACC-257 melanoma): > 100 µM
- TGI (NCI-H460 lung): > 100 µM
- TGI (ACHN renal): > 100 µM
- TGI (HOP-92 NSCLC): > 100 µM
- TGI (HCC-2998 colon): > 100 µM
- TGI (RXF 393 renal): > 100 µM
- TGI (CCRF-CEM leukemia): > 100 µM
- TGI (SK-MEL-5 melanoma): > 100 µM
- TGI (M19-MEL melanoma): > 100 µM
- TGI (K-562 leukemia): > 100 µM
- TGI (SK-MEL-28 melanoma): > 100 µM
- TGI (CAKI-1 renal): > 100 µM
- TGI (SF-295 CNS): > 100 µM
- TGI (MOLT-4 leukemia): > 100 µM
- TGI (MALME-3M melanoma): > 100 µM
- TGI (RXF-631 renal): > 100 µM
- TGI (M14 melanoma): > 100 µM
- TGI (DLD-1 colon): > 100 µM
- TGI (SK-MEL-2 melanoma): > 100 µM
- TGI (COLO 205 colon): > 100 µM
- TGI (SR leukemia): > 100 µM
- TGI (TK-10 renal): > 100 µM
- TGI (HL-60(TB) leukemia): > 100 µM
- TGI (U251 CNS): > 100 µM
- TGI (HCT-15 colon): > 100 µM
- TGI (HT29 colon): > 100 µM
- TGI (UACC-62 melanoma): > 100 µM
- TGI (XF 498 CNS): > 100 µM
- TGI (NCI-H522 lung): > 100 µM

Source: PubChem BioAssay (NCI)
